One molecule from article PMC13252604, “First Generation Proteolysis Targeting Chimeras (PROTACs) for the Treatment of Progeria” (Advanced Science, 2026) can be followed below.

The term AUC denotes concentration integrated over time. Higher therefore signals high exposure.

The nature of this data set: In vivo pharmacokinetic analysis. The note with it: mouse, i.p. 25 mg/kg. The protocol:
FIGURE 8 (A) In vivo pharmacokinetic (PK) analysis of compound 2 (mean±sem, n = 2 per time point). (B) Body weight throughout the 7‐week treatment. Mice of the indicated genotypes (mean±sem, n = 2) were treated with compound 2 or vehicle, starting at 6 weeks of age. (C) Progerin and H3K9Me3 levels in lung and liver, respectively, of mice treated for 7 weeks. Representative cropped immunoblots are shown. MW, molecular weight (in kDa) markers. […] TEXT PRINTED IN THE PICTURE: (A) no label printed: VD (L·Kg^-1): 11± 5 (Dose (D) (mg·Kg^-1): 25); Ke (h^-1): 0.9± 0.1 (Dose (D) (mg·Kg^-1): 25); t1/2 (h): […] (Dose (D) (mg·Kg^-1): 25); AUC (mg·h·L^-1): 3±1 (Dose (D) (mg·Kg^-1): 25); CL (L·Kg^-1·h^-1): 10±5 (Dose (D) (mg·Kg^-1): 25) DOUBTS OF THE COPYIST ABOUT THIS PICTURE: Panel A: the picture prints no substance label beside the pharmacokinetic table, so the label is left empty. "Cpd 2" is printed only in panel B. […]
All scientific procedures with animals were conformed to EU Directive 2010/63 EU and Recommendation 2007/526/EC, enforced in Spanish law under Real Decreto 53/2013.
Animal protocols were approved by the Committee of Animal Experimentation of Universidad Complutense de Madrid and the Animal Protection Area of the Comunidad Autónoma de Madrid (PROEX 114.4/24). Animal studies were carried out in LmnaG609G/G609G knock-in mice ubiquitously expressing progerin[19] and control Lmna+/+ littermates, obtained by breeding LmnaG609G/+ mice kindly donated by Prof. V. Andrés (CNIC, Spain). Mice were maintained in the animal facility of the Universidad Complutense de Madrid under specific pathogen free conditions.
For pharmacokinetic studies, compound 2 was administered intraperitoneally and blood was collected at the selected time points post-dose (n=2-3 per time point) by cardiac puncture. Blood was allowed to clot at room temperature for 30 min and centrifuged at 4 °C for 10 min at 10000g. The supernatant was transferred to a clean polypropylene tube and stored at -80 °C until analysis. For analysis, a volume of cold acetonitrile was added to the serum. The sample was incubated in an ice bath for 10 min and centrifuged at 4 °C for 10 min at 18000g. The resulting organic layer was filtered through a polytetrafluoroethylene filter (0.2 µm, 13 mm diameter, Agilent Technologies) and 30 µL of the sample analyzed by liquid chromatography coupled to mass spectrometry multiple reaction monitoring at the UCM’s Mass Spectrometry CAI. Separation was performed using a Phenomenex Gemini 5 µm C18 110Å 150x2 mm column (run time 9 min; flow 0.7 mL/min; gradient: 0 min 5% B; 4-7 min 100% B; 7.5 min 5% B; Phase A: water with formic acid 0.1%; Phase B: acetonitrile). […]
UHPLC with an oven temperature of 31.5 °C. The mass spectrometer ion optics were set in the multiple reaction monitoring mode and the transition selected for quantification […]
For in vivo treatment, compound 2 was administrated at a concentration of 25 mg/kg diluted in sterile corn oil (Sigma-Aldrich) intraperitoneally three times per week starting at the age of 6 weeks. The same quantity of corn oil was injected to control […]
After 7 weeks of treatment, mice were euthanized by CO2 inhalation. […] For immunoblot analysis, a portion of the corresponding tissue was homogenized, and the protein concentration was determined. Samples containing equivalent amounts of total protein were then subjected to polyacrylamide gel electrophoresis and analyzed as […]

`CC1(C)Oc2cc3oc(=O)ccc3cc2C[C@@H]1OC(=O)CCCCCNc1cccc2c1C(=O)N(C1CCC(=O)NC1=O)C2=O` (some centres unmarked) [compound 2]: the signs of toxicity result is “no evident signs of toxicity”. Besides, under “ip, serum, 1 h, read-out: levels of the compound 1 h after administration”, the concentration at 1 h is ~1500 ng/mL. Besides, the half-life (serum, ip, 25 mg/kg, read-out: t1/2 (half‐life) (converted)) was ~2 h. In addition, the AUC (serum, ip) turned out to be 3000 ± 1000 ng·h/mL. Further, under “serum, ip, read-out: Ke (converted)”, the k el is 0.00025 s⁻¹.
